Data: US20230095520A1, “PHARMACEUTICAL COMPOSITION FOR PREVENTING OR TREATING CANCER COMPRISING AZOLE DERIVATIVES OR PHARMACEUTICALLY ACCEPTABLE SALT THEREOF” (Yungjin Pharm. Co., Ltd., priority 2020, published 2023)

System: MV-4-11 cells
Assay: MV-4-11 cell proliferation inhibition (CCK-8)
Format: cell-based
Settings: Homo sapiens, 72 hours; for inhibition at 0.1 µM: MV4-11, MV-4-11, compound concentration 100 nM, read-out: Inhibition rate (%); for IC50: MV4-11, MV-4-11 proliferation
Method: MV-4-11 cells are one of the acute myeloid leukemia cells with a Fms-like tyrosine kinase (FLT3) gene mutation, and these cells are used to test inhibition of proliferation and survival of leukemia cells.
MV-4-11 cells cultured in a 96-well cell culture plate were treated with the compound of the present invention and cultured for 72 hours. Thereafter, the antiproliferative effect of the compound was assayed by the CCK-8 method using a tetrazolium salt.

| Compound | inhibition at 0.1 µM | IC50 |
| --- | --- | --- |
| CCc1cnc(NC(=O)[C@@H](C)c2cccc(-c3ccc(NC(=O)/C=C/CN(C)C)nc3)c2)s1 [Compound 17, (S,E)-4-(dimethylamino)-N-(5-(3-(1-((5-ethylthiazol-2-yl)amino)-1-oxopropan-2-yl)phenyl)pyridin-2-yl)but-2-enamide] | 100% |  |
| C=CC(=O)Nc1ccc(-c2cc(C(C)C(=O)Nc3ncc(C4CC4)s3)ccn2)cn1 (stereo not drawn) [Compound 50, N-(4-(1-((5-cyclopropylthiazol-2-yl)amino)-1-oxopropan-2-yl)-[2,3′-bipyridin]-6′-yl)acrylamide] | 100% | 0.0172 µM |
| C=CC(=O)Nc1ccc(-c2cccc([C@H](C)C(=O)Nc3ncc(C(F)(F)F)s3)c2)nn1 [Compound 39, (S)-N-(6-(3-(1-oxo-1-((5-(trifluoromethyl)thiazol-2-yl)amino)propan-2-yl)phenyl)pyridazin-3-yl)acrylamide] | 100% | 0.03 µM |
| C=CC(=O)Nc1ccc(-c2cccc([C@H](C)C(=O)Nc3ncc(C#N)s3)c2)nn1 [Compound 32, (S)-N-(6-(3-(1-((5-cyanothiazol-2-yl)amino)-1-oxopropan-2-yl)phenyl)pyridazin-3-yl)acrylamide] | 100% |  |
| C[C@H](C(=O)Nc1ncc(C#N)s1)c1cccc(-c2ccc(NC(=O)/C=C/CN(C)C)nc2)c1 [Compound 21, (S,E)-N-(5-(3-(1-((5-cyanothiazol-2-yl)amino)-1-oxopropan-2-yl)phenyl)pyridin-2-yl)-4-(dimethylamino)but-2-enamide] | 84% |  |
| C=CC(=O)Nc1cnc(-c2cncc(C(C)C(=O)Nc3ncc(C(C)C)s3)c2)cn1 (stereo not drawn) [Compound 47, N-(5-(5-(1-((5-isopropylthiazol-2-yl)amino)-1-oxopropan-2-yl)pyridin-3-yl)pyrazin-2-yl)acrylamide] | 100% | 0.0122 µM |
| C=CC(=O)Nc1cnc(-c2cncc(C(C)C(=O)Nc3ncc(C4CC4)s3)c2)cn1 (stereo not drawn) [Compound 43, N-(5-(5-(1-((5-cyclopropylthiazol-2-yl)amino)-1-oxopropan-2-yl)pyridin-3-yl)pyrazin-2-yl)acrylamide] | 100% | 0.0246 µM |
| C=CC(=O)Nc1ccc(-c2cncc(C(C)C(=O)Nc3ncc(C#N)s3)c2)cn1 (stereo not drawn) [Compound 41, N-(5′-(1-((5-cyanothiazol-2-yl)amino)-1-oxopropan-2-yl)-[3,3′-bipyridin]-6-yl)acrylamide] | 100% |  |
| C=CC(=O)Nc1ccc(-c2cccc([C@H](CC)C(=O)Nc3ncc(CC)s3)c2)cn1 [Compound 19, (S)-2-(3-(6-acrylamidopyridin-3-yl)phenyl)-N-(5-ethylthiazol-2-yl)butanamide] | 75% |  |
| C=CC(=O)Nc1ccc(-c2cncc(C(C)C(=O)Nc3ncc(C(F)(F)F)s3)c2)nn1 (stereo not drawn) [Compound 49, N-(6-(5-(1-oxo-1-((5-(trifluoromethyl)thiazol-2-yl)amino)propan-2-yl)pyridin-3-yl)pyridazin-3-yl)acrylamide] | 100% | 0.0187 µM |
| C=CC(=O)Nc1cnc(-c2cncc(C(C)C(=O)Nc3ncc(Cl)s3)c2)cn1 (stereo not drawn) [Compound 61, N-(5-(5-(1-((5-chlorothiazol-2-yl)amino)-1-oxopropan-2-yl)pyridin-3-yl)pyrazin-2-yl)acrylamide] |  | 0.0091 µM |
| C=CC(=O)Nc1cnc(-c2cccc([C@H](C)C(=O)Nc3ncc(C(C)C)s3)c2)cn1 [Compound 36, (S)-N-(5-(3-(1-((5-isopropylthiazol-2-yl)amino)-1-oxopropan-2-yl)phenyl)pyrazin-2-yl)acrylamide] | 100% |  |
| C=CC(=O)Nc1cnc(-c2cncc(C(C)C(=O)Nc3ncc(CC)s3)c2)cn1 (stereo not drawn) [Compound 46, N-(5-(5-(1-((5-ethylthiazol-2-yl)amino)-1-oxopropan-2-yl)pyridin-3-yl)pyrazin-2-yl)acrylamide] | 100% | 0.0091 µM |
| C=CC(=O)Nc1cnc(-c2cncc(C(C)C(=O)Nc3ncc(C(C)=O)s3)c2)cn1 (stereo not drawn) [Compound 48, N-(5-(5-(1-((5-acetylthiazol-2-yl)amino)-1-oxopropan-2-yl)pyridin-3-yl)pyrazin-2-yl)acrylamide] | 100% |  |
| C=CC(=O)Nc1ccc(-c2cccc(C(C)C(=O)Nc3ncc(C)s3)c2)cn1 (stereo not drawn) [Compound 1, N-(5-(3-(1-((5-methylthiazol-2-yl)amino)-1-oxopropan-2-yl)phenyl)pyridin-2-yl)acrylamide] | 80% |  |
| C=CC(=O)Nc1ccc(-c2cccc([C@H](C)C(=O)Nc3ncc(C(F)(F)F)s3)c2)cn1 [Compound 38, (S)-N-(5-(3-(1-oxo-1-((5-(trifluoromethyl)thiazol-2-yl)amino)propan-2-yl)phenyl)pyridin-2-yl)acrylamide] | 98% |  |
| C=CC(=O)Nc1cnc(-c2cncc(C(C)C(=O)Nc3ncc(SC)s3)c2)cn1 (stereo not drawn) [Compound 71, N-(5-(5-(1-((5-(methylthio)thiazol-2-yl)amino)-1-oxopropan-2-yl)pyridin-3-yl)pyrazin-2-yl)acrylamide] |  | 0.0032 µM |
| C=CC(=O)Nc1ccc(-c2cccc([C@H](C)C(=O)Nc3ncc(CC)s3)c2)c(F)n1 [Compound 31, (S)-N-(5-(3-(1-((5-ethylthiazol-2-yl)amino)-1-oxopropan-2-yl)phenyl)-6-fluoropyridin-2-yl)acrylamide] | 98% |  |
| C=CC(=O)Nc1ncc(-c2cccc([C@H](C)C(=O)Nc3ncc(C#N)s3)c2)nc1C [Compound 34, (S)-N-(5-(3-(1-((5-cyanothiazol-2-yl)amino)-1-oxopropan-2-yl)phenyl)-3-methylpyrazin-2-yl)acrylamide] | 80% |  |
| C=CC(=O)Nc1ccc(-c2cccc(C(C)C(=O)Nc3ncc(CC)s3)c2)cn1 (stereo not drawn) [Compound 4, N-(5-(3-(1-((5-ethylthiazol-2-yl)amino)-1-oxopropan-2-yl)phenyl)pyridin-2yl)acrylamide] | 100% | 0.0508 µM |
| C=CC(=O)Nc1cnc(-c2cncc(C(C)C(=O)Nc3ncc(OC)s3)c2)cn1 (stereo not drawn) [Compound 66, N-(5-(5-(1-((5-methoxythiazol-2-yl)amino)-1-oxopropan-2-yl)pyridin-3-yl)pyrazin-2-yl)acrylamide] |  | 0.0228 µM |
| C=CC(=O)Nc1ccc(-c2cccc([C@H](C)C(=O)Nc3ncc(C(C)C)s3)c2)nn1 [Compound 40, (S)-N-(6-(3-(1-((5-isopropylthiazol-2-yl)amino)-1-oxopropan-2-yl)phenyl)pyridazin-3-yl)acrylamide] | 100% | 0.0278 µM |
| C=CC(=O)Nc1ccc(-c2cccc([C@H](C)C(=O)Nc3ncc(C#N)s3)c2)cn1 [Compound 18, (S)-N-(5-(3-(1-((5-cyanothiazol-2-yl)amino)-1-oxopropan-2-yl)phenyl)pyridin-2-yl)acrylamide] | 67% |  |
| C=CC(=O)Nc1ccc(-c2cccc([C@H](C)C(=O)Nc3ncc(C(C)C)s3)c2)cn1 [Compound 35, (S)-N-(5-(3-(1-((5-isopropylthiazol-2-yl)amino)-1-oxopropan-2-yl)phenyl)pyridin-2-yl)acrylamide] | 98% |  |
| C=CC(=O)Nc1ncc(-c2cccc([C@H](C)C(=O)Nc3ncc(C#N)s3)c2)cc1F [Compound 33, (S)-N-(5-(3-(1-((5-cyanothiazol-2-yl)amino)-1-oxopropan-2-yl)phenyl)-3-fluoropyridin-2-yl)acrylamide] | 100% |  |
| C=CC(=O)Nc1ccc(-c2cccc([C@H](C)C(=O)Nc3ncc(CC)s3)c2)cc1C#N [Compound 30, (S)-N-(3-cyano-3′-(1-((5-ethylthiazol-2-yl)amino)-1-oxopropan-2-yl)-[1,1′-biphenyl]-4-yl)acrylamide] | 96% |  |
| C=CC(=O)Nc1ccc(-c2csc(C(C)C(=O)Nc3ncc(CC)s3)c2)cn1 (stereo not drawn) [Compound 77, N-(5-(5-(1-((5-ethylthiazol-2-yl)amino)-1-oxopropan-2-yl)thiophen-3-yl)pyridin-2-yl)acrylamide] |  | 0.0167 µM |
| C=CC(=O)Nc1ccc(-c2cc(C(C)C(=O)Nc3ncc(C#N)s3)ccn2)cn1 (stereo not drawn) [Compound 42, N-(4-(1-((5-cyanothiazol-2-yl)amino)-1-oxopropan-2-yl)-[2,3′-bipyridin]-6′-yl)acrylamide] | 100% |  |
| C=CC(=O)Nc1cnc(-c2cccc([C@H](C)C(=O)Nc3ncc(C#N)s3)c2)cn1 [Compound 25, (S)-N-(5-(3-(1-((5-cyanothiazol-2-yl)amino)-1-oxopropan-2-yl)phenyl)pyrazin-2-yl)acrylamide] | 100% |  |
| C=CC(=O)Nc1cnc(-c2cncc(C(C)C(=O)Nc3ncc(C#N)s3)c2)cn1 (stereo not drawn) [Compound 44, N-(5-(5-(1-((5-cyanothiazol-2-yl)amino)-1-oxopropan-2-yl)pyridin-3-yl)pyrazin-2-yl)acrylamide] | 100% | 0.0544 µM |
